Assay results published in US11534457B2, “Use of dextran sulfate” (priority 2017, dated 2022).

Tests used:
[1] = biological target: T1, protein-protein interaction between oligomeric amyloid-β and PrP^c (Homo sapiens, UniProt P04156); format: binding
[2] = biological target: T1, protein-protein interaction between oligomeric amyloid-β and PrP^c; details: cited from earlier work
[3] = test system: Experimental Autoimmune Encephalomyelitis (EAE); experiment: Mouse Experimental Autoimmune Encephalomyelitis (EAE) model, clinical score; format: in vivo, C57B1.6 mice; details: 100 ng/dose i.v. every other day from day 18

Row | Molecule | Competable binding (%) [1] [%] | Hill coefficient [1] | IC50 [1] [µg/mL] | competition for the protein-protein interaction (in words) [1] | effective concentrations to compete with the protein-protein interaction (Aimi et al.) [2] | mean EAE score vs vehicle [3]
1 | dextran sulphate sodium salt [DSSS] | 101 ± 2 | 1.51 ± 0.06 | 0.62 ± 0.07 | competed for the protein-protein interaction between oligomeric amyloid-β and PrP^c in a concentration dependent manner | in the low μg/ml range | –
2 | dextran | – | – | – | failed to compete appreciably | – | –
3 | HGF: Hepatocyte growth factor (HGF) recombinant mouse (R&D Systems) (protein, UniProt Q08048 33-495; Q08048 496-728, looked up) Hepatocyte growth factor …: QKKRRNTLHEFKKSAKTTLTKEDPLLKIKTKKVNSADECANRCIRNRGFTFTCKAFVFDKSRKRCYWYPFNSMSSGVKKGFGHEFDLYENKDYIRNCIIGKGGSYKGTVSITKSGIKCQPWNSMIPHEHSFLPSSYRGKDLQENYCRNPRGEEGGPWCFTSNPEVRYEVCDIPQCSEVECMTCNGESYRGPMDHTESGKTCQRWDQQTPHRHKFLPERYPDKGFDDNYCRNPDGKPRPWCYTLDPDTPWEYCAIKTCAHSAVNETDVPMETTECIQGQGEGYRGTSNTIWNGIPCQRWDSQYPHKHDITPENFKCKDLRENYCRNPDGAESPWCFTTDPNIRVGYCSQIPKCDVSSGQDCYRGNGKNYMGNLSKTRSGLTCSMWDKNMEDLHRHIFWEPDASKLNKNYCRNPDDDAHGPWCYTGNPLIPWDYCPISRCEGDTTPTIVNLDHPVISCAKTKQLR Hepatocyte growth factor beta …: VVNGIPTQTTVGWMVSLKYRNKHICGGSLIKESWVLTARQCFPARNKDLKDYEAWLGIHDVHERGEEKRKQILNISQLVYGPEGSDLVLLKLARPAILDNFVSTIDLPSYGCTIPEKTTCSIYGWGYTGLINADGLLRVAHLYIMGNEKCSQHHQGKVTLNESELCAGAEKIGSGPCEGDYGGPLICEQHKMRMVLGVIVPGRGCAIPNRPGIFVRVAYYAKWIHKVILTYKL | – | – | – | – | – | did not result in any significant difference
